The target in one experiment is human GPR40 protein (Homo sapiens, UniProt O14842). The experiment is described as follows: GPR40 agonist binding inhibition (displacement of 3H-labeled propanoic acid radioligand). The settings on record: membrane protein including human GPR40, 3H-labeled propanoic acid radioligand, 25° C., 2 hours; read-out: Half maximal inhibitory concentration. On the procedure: Measurement of 50% Inhibitory Concentration (ID50) for GPR40 Agonist Binding
To examine the efficacy of the compounds according to one exemplary embodiment of the present invention in modulating GPR40, the half maximal inhibitory concentrations (IC50) of the compounds according to one exemplary embodiment of the present invention were measured by Microbeta2™ (PerkinElmer Inc.) using a change in radiation dose emitted from ^3H-labeled propanoic acid (i.e., 3-(4-((2,6′-dimethyl-6-((4-(^3H))-phenylmethoxy)biphenyl-3-yl)methoxy)phenyl)propanoic acid), which is a radioactive isotope which binds to a human GPR40 protein, as an indicator.
Specifically, a test compound was prepared by serial dilution with DMSO, and 100 μL of a binding buffer (including 25 mM HEPES (pH 7.5), 5 mM MgCl2, 100 mM NaCl, and 0.1% free fatty acid BSA; Sigma-Aldrich Corp.) was put into each well of a 96-well transparent plate. Thereafter, each of the diluted compound, propanoic acid which was prepared by dissolving propanoic acid in DMSO to a concentration of 500 mM and not labeled with a radioactive isotope, and DMSO was dispensed at 5 μL per well. ^3H-labeled propanoic acid was dissolved in a binding buffer at a concentration of 1 nM and dispensed at 50 μL into the corresponding wells, and a membrane protein including a human GPR40 protein was dissolved in a binding buffer at a concentration of 20 μg/well and dispensed at 100 μL, into the corresponding wells.
After the dispensation was completed, the plate was incubated at a temperature of 25° C. and a rotary speed of 230 rpm for 2 hours while shaking. A human GPR40 complex was transferred to Filtermat A (PerkinElmer Inc.) using a cell harvester (PerkinElmer Inc.), washed 10 times with 50 mM tris-HCl, dried, and then scintillated using Meltilex (PerkinElmer Inc.). Thereafter, an emitted radiation dose was measured using Microbeta2™. The radiation doses emitted from the complex in the well containing 10 mM unlabeled propanoic acid and the complex in the well containing DMSO alone were set as 0% and 100%, respectively. Thus, a change curve for each of the radiation doses was plotted to calculate the half maximal inhibitory concentration of the test compound.

A further experiment deals with male ZFDM rats. The experiment is described as follows: Hypoglycemic rate after oral glucose loading in rats. The format is in vivo, rat. The note with it: oral 0.1 to 30 mg/kg one hour before glucose loading (1.5 g/kg), blood glucose AUC 0 to 120 minutes versus control. On the procedure: Measurement of Hypoglycemic Rate in Rats
An effect of the compound according to one exemplary embodiment of the present invention on blood glucose inhibition after glucose loading was examined in male ZFDM rats (Japan SLC, Inc.).
Specifically, male ZFDM rats (7 week-old) pre-fed for a week were fasted overnight, and used as an animal to be tested. A test compound was prepared into a 0.5% methylcellulose suspension, which was orally administered to rats at a dose of 0.1 to 30 mg/kg before an hour of glucose loading (1.5 g/kg). As the control, 0.5% methylcellulose was administered. After the glucose administration, blood was drawn from the rats' tails after 0, 15, 30, 60 and 120 minutes to measure a blood glucose level. The area under the curve (AUC) for compound treatment was calculated using a blood glucose change profile from t=0 to 120 minutes, and a hypoglycemic rate (%) for the control was calculated.

Each structure is given as a SMILES string.

Sequence of human GPR40 protein (O14842 whole entry): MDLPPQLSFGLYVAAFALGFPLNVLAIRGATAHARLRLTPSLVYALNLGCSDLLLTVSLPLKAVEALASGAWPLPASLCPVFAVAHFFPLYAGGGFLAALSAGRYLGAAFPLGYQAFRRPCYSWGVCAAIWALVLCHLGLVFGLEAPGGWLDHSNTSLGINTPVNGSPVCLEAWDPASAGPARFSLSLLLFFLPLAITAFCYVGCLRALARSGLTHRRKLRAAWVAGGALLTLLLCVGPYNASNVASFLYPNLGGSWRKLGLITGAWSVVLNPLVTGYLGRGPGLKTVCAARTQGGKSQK

Take `CCN1CCc2cc(OCCCS(C)(=O)=O)ccc2-c2cc(COc3ccc4c(c3)OC[C@H]4CC(=O)O)ccc21` [Example 44, (S)-2-(6-((5-ethyl-9-(3-(methylsulfonyl)propoxy)-6,7-dihydro-5H-dibenzo[b,d]azepin-2-yl)methoxy)-2,3-dihydrobenzofuran-3-yl)acetic acid]: on human GPR40 protein, the IC50 stood at 0.0757 µM.
Regarding `CCS(=O)(=O)CCCOc1cc(C)c2c(c1)CCOc1ccc(COc3ccc4c(c3)OC[C@H]4CC(=O)O)cc1-2` [Example 38, 2-((3S)-6-((9-(3-(ethylsulfonyl)propoxy)-11-methyl-6,7-dihydrodibenzo[b,d]oxepin-2-yl)methoxy)-2,3-dihydrobenzofuran-3-yl)acetic acid], the IC50 at human GPR40 protein stood at 0.0391 µM.
For the compound `CCS(=O)(=O)CCCOc1cc(C)c2c(c1)CCOc1ccc(COc3ccc([C@H]4C[C@@H]4C(=O)O)c(F)c3)cc1-2` [Example 41, (1S,2S)-2-(4-((9-(3-(ethylsulfonyl)propoxy)-11-methyl-6,7-dihydrodibenzo[b,d]oxepin-2-yl)methoxy)-2-fluorophenyl)cyclopropanecarboxylic acid], the IC50 at human GPR40 protein was determined as 0.125 µM.
Take `Cc1nc(N2CCOCC2)nc2c1-c1cc(COc3ccc4c(c3)OC[C@H]4CC(=O)O)ccc1CCC2` [Example 81, 2-((3S)-6-((1-methyl-3-morpholino-6,7-dihydro-5H-benzo[3,4]cyclohepta[1,2-d]pyrimidin-10-yl)methoxy)-2,3-dihydrobenzofuran-3-yl)acetic acid]: the IC50 at human GPR40 protein was found to be 0.181 µM.
In turn, `Cc1cc(OCCCS(C)(=O)=O)cc2c1-c1cc(COc3ccc4c(c3)OC[C@H]4CC(=O)O)ccc1OC2` [Example 26, (S)-2-(6-((10-methyl-8-(3-(methylsulfonyl)propoxy)-6H-benzo[c]chromen-2-yl)methoxy)-2,3-dihydrobenzofuran-3-yl)acetic acid] returned a Hypoglycemic rate in the experiment on male ZFDM rats of 31.0%.
With `C[C@@H]1Cc2cc(OCCCS(C)(=O)=O)ccc2-c2cc(COc3ccc4c(c3)OC[C@H]4CC(=O)O)ccc2O1` [Example 79, 2-((S)-6-(((R)-6-methyl-9-(3-(methylsulfonyl)propoxy)-6,7-dihydrodibenzo[b,d]oxepin-2-yl)methoxy)-2,3-dihydrobenzofuran-3-yl)acetic acid], on human GPR40 protein, the IC50 was 0.0844 µM.
On to `O=C(O)C[C@@H]1COc2cc(OCc3ccc4c(c3)-c3ccc(OCC5(O)CCS(=O)(=O)CC5)cc3CCC4)ccc21` [Example 65, (S)-2-(6-((9-((4-hydroxy-1,1-dioxidotetrahydro-2H-thiopyran-4-yl)methoxy)-6,7-dihydro-5H-dibenzo[a,c][7]annulen-2-yl)methoxy)-2,3-dihydrobenzofuran-3-yl)acetic acid], for which the IC50 on human GPR40 protein amounted to 0.16 µM.
Consider `Cc1cc(OCCCS(C)(=O)=O)cc2c1-c1cccc(COc3ccc4c(c3)OC[C@H]4CC(=O)O)c1CCC2` [Example 1, 2-((3S)-6-((11-methyl-9-(3-(methylsulfonyl)propoxy)-6,7-dihydro-5H-dibenzo[a,c][7]annulen-4-yl)methoxy)-2,3-dihydrobenzofuran-3-yl)acetic acid], for which the IC50 at human GPR40 protein is 0.158 µM.
In the case of `Cc1cc(OC2CCS(=O)(=O)CC2)cc2c1-c1cc(COc3ccc([C@H]4C[C@@H]4C(=O)O)cc3)ccc1CCC2` [Example 59, (1S,2S)-2-(4-((9-((1,1-dioxidotetrahydro-2H-thiopyran-4-yl)oxy)-11-methyl-6,7-dihydro-5H-dibenzo[a,c][7]annulen-2-yl)methoxy)phenyl)cyclopropanecarboxylic acid], the IC50 at human GPR40 protein was 0.071 µM.
Consider `CCS(=O)(=O)CCCOc1cc(C)c2c(c1)CCCc1ccc(COc3ccc4c(c3)OC[C@H]4CC(=O)O)cc1-2` [Example 57, 2-((3S)-6-((9-(3-(ethylsulfonyl)propoxy)-11-methyl-6,7-dihydro-5H-dibenzo[a,c][7]annulen-2-yl)methoxy)-2,3-dihydrobenzofuran-3-yl)acetic acid], for which the Hypoglycemic rate in the experiment on male ZFDM rats was 21.7%.
For `Cc1cc(OCC2CCS(=O)(=O)CC2)cc2c1-c1cc(COc3ccc4c(c3)OC[C@H]4CC(=O)O)ccc1OCC2` [Example 47, 2-((3S)-6-((9-((1,1-dioxidotetrahydro-2H-thiopyran-4-yl)methoxy)-11-methyl-6,7-dihydrodibenzo[b,d]oxepin-2-yl)methoxy)-2,3-dihydrobenzofuran-3-yl)acetic acid], the IC50 on human GPR40 protein was determined as 0.0531 µM.
For the compound `CC#C[C@@H](CC(=O)O)c1ccc(OCc2ccc3c(c2)-c2ccc(OCC4CCS(=O)(=O)CC4)cc2CCC3)cc1` [Example 109, (S)-3-(4-((9-((1,1-dioxidotetrahydro-2H-thiopyran-4-yl)methoxy)-6,7-dihydro-5H-dibenzo[a,c][7]annulen-2-yl)methoxy)phenyl)hex-4-ynoic acid], on human GPR40 protein, the IC50 is 0.0056 µM.
Same read-out and setting: in the case of `Cc1cc(OC2CCS(=O)(=O)CC2)cc2c1-c1cc(CNc3ccc([C@H]4C[C@@H]4C(=O)O)cc3)ccc1CCC2` [Example 76, (1S,2S)-2-(4-(((9-((1,1-dioxidotetrahydro-2H-thiopyran-4-yl)oxy)-11-methyl-6,7-dihydro-5H-dibenzo[a,c][7]annulen-2-yl)methyl)amino)phenyl)cyclopropanecarboxylic acid] it was 0.0147 µM.
Compound `CC#C[C@@H](CC(=O)O)c1ccc(OCc2ccc3c(c2)-c2ccc(OCCCS(C)(=O)=O)cc2CCC3)cc1` [Example 108, (S)-3-(4-((9-(3-(methylsulfonyl)propoxy)-6,7-dihydro-5H-dibenzo[a,c][7]annulen-2-yl)methoxy)phenyl)hex-4-ynoic acid] had a Hypoglycemic rate in the experiment on male ZFDM rats of 37.5%.
As to `CS(=O)(=O)CCCOc1ccc2c(c1)COCc1ccc(CNc3ccc([C@H]4C[C@@H]4C(=O)O)cc3)cc1-2` [Example 18, (1S,2S)-2-(4-(((9-(3-(methylsulfonyl)propoxy)-5,7-dihydrodibenzo[c,e]oxepin-2-yl)methyl)amino)phenyl)cyclopropanecarboxylic acid], on human GPR40 protein, the IC50 was found to be 0.752 µM.
Same read-out and setting: the value for `CCS(=O)(=O)CCCOc1cc(C)c2c(c1)CCCc1ccc(COc3ccc([C@H]4C[C@@H]4C(=O)O)cc3)cc1-2` [Example 61, (1S,2S)-2-(4-((9-(3-(ethylsulfonyl)propoxy)-11-methyl-6,7-dihydro-5H-dibenzo[a,c][7]annulen-2-yl)methoxy)phenyl)cyclopropanecarboxylic acid] was 0.0266 µM; that for `CCS(=O)(=O)CCCOc1ccc2c(c1)CCCc1cc(F)c(CNc3ccc([C@H]4C[C@@H]4C(=O)O)cc3)cc1-2` [Example 105, (1S,2S)-2-(4-(((9-(3-(ethylsulfonyl)propoxy)-3-fluoro-6,7-dihydro-5H-dibenzo[a,c][7]annulen-2-yl)methyl)amino)phenyl)cyclopropanecarboxylic acid] was 0.0162 µM; that for `Cc1cc(OCCCS(C)(=O)=O)cc2c1-c1cc(COc3ccc4c(c3)OC[C@H]4CC(=O)O)ccc1OCC2` [Example 14, 2-((3S)-6-((11-methyl-9-(3-(methylsulfonyl)propoxy)-6,7-dihydrodibenzo[b,d]oxepin-2-yl)methoxy)-2,3-dihydrobenzofuran-3-yl)acetic acid] was 0.0177 µM.
On the same count and under the same terms, in the case of `Cc1cc(OCCCS(C)(=O)=O)cc2c1-c1cc(COc3ccc([C@H]4C[C@@H]4C(=O)O)cc3)ccc1CC2` [Example 31, (1S,2S)-2-(4-((5-methyl-7-(3-(methylsulfonyl)propoxy)-9,10-dihydrophenanthren-3-yl)methoxy)phenyl)cyclopropanecarboxylic acid] it was 0.0457 µM; in that of `CS(=O)(=O)CCCOc1ccc2c(c1)CCCc1ccc(COc3ccc([C@H]4C[C@@H]4C(=O)O)cc3)cc1-2` [Example 25, (1S,2S)-2-(4-((9-(3-(methylsulfonyl)propoxy)-6,7-dihydro-5H-dibenzo[a,c][7]annulen-2-yl)methoxy)phenyl)cyclopropanecarboxylic acid], 0.103 µM; in that of `CC1(COc2ccc3c(c2)CCCc2ccc(COc4ccc5c(c4)OC[C@H]5CC(=O)O)cc2-3)CCS(=O)(=O)CC1` [Example 93, (S)-2-(6-((9-((4-methyl-1,1-dioxidotetrahydro-2H-thiopyran-4-yl)methoxy)-6,7-dihydro-5H-dibenzo[a,c][7]annulen-2-yl)methoxy)-2,3-dihydrobenzofuran-3-yl)acetic acid], 0.0505 µM.
